Values of other authors in patent US8759098B2, “Method for cloning pluripotent stem cells” (Boston Biomedical Research Institute, Inc., priority 2009, dated 2014).

Tested on: somatic cells
Conditions: low oxygen conditions; Page et al. 2009; cited from earlier work

FGF2: fibroblast growth factor 2
expression of pluripotency inducing genes: increased
